From patent US9938262B2, “Benzamides” (Merck Patent GmbH, priority 2011, dated 2018) come the findings set out here.

SMILES strings stand for the structures.

The target in one test is T1, FSHR (Homo sapiens, UniProt P23945).
T1 construct: expressed in transfected cells; host or cells: CHO (Cho-FSHR-LUC-1-1-43)
T1 sequence (P23945 18-695): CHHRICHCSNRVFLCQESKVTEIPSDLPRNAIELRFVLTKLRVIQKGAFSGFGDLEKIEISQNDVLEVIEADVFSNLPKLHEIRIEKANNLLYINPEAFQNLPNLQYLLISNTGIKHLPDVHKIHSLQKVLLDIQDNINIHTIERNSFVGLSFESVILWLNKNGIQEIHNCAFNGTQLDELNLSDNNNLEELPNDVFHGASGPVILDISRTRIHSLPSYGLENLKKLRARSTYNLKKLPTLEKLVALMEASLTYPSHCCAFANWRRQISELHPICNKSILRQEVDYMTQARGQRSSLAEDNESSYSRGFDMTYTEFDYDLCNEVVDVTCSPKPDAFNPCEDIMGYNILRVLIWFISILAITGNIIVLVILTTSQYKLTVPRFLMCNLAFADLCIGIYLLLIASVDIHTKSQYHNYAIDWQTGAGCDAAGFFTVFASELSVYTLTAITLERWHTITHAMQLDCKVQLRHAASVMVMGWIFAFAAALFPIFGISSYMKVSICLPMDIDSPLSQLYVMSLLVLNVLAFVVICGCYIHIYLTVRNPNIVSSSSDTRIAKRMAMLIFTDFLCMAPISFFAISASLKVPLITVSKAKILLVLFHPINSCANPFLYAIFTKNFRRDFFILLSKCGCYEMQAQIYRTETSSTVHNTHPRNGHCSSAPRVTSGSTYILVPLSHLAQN
T1 sequence (P01215 25-116 partner): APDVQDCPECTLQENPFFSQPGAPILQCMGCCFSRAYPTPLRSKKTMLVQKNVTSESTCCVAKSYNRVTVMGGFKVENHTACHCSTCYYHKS
T1 sequence (P01225 19-129 partner): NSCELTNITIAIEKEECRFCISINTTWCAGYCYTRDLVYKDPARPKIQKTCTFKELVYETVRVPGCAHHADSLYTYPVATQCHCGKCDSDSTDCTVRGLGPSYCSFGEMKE
Description: EC50 of cyclic AMP production in CHO FSHR cells + EC20 FSH (Assay A). The settings on record: 1 h; 5 μM; effect relative to maximum response of the FSH standard; Table 1. The class given is cell-based. Here is the method: Example 10: EC50 of Cyclic AMP Production in CHO FSHR Cells+EC20 FSH (Assay A)
2500 Cho-FSHR-LUC-1-1-43 cells were plated per well in 5 μl of phenol red free DMEM/F12+1% FBS. Cells were plated in 384 well, solid white low volume plates (Greiner 784075) by Multidrop. Cells were assayed by adding 100 μl of 2×EC20 FSH/IBMX in DMEM/F12+0.1% BSA) by Multidrop to 2 μl of test compound stamped in 384 well plates (compounds are diluted 1:50). The final FSH concentration was […], and the final IBMX concentration was 200 μM. The compound plate map was as follows: Column 1: 2 μl of DMSO; Column 2: 2 μl of DMSO; Columns 3-12 and 13-24: 2 μl of test compound, diluted 1:4 in 100% DMSO, or 2 μl of FSH, diluted 1:4 in DMEM/F12+0.1% BSA. The starting concentration for FSH was 50 nM (final concentration was 0.5 nM). […] 5 μl of compound+EC20 FSH mixture were transferred to cell plates (1:2 dilution into 5 μl of cell media) The plates were incubated at 37° C. for 1 h. 10 μl of mixed HTRF (CisBio #62AM4PEC) reagents were added per well and incubated at room temperature for 1 h. The plates were read on Envision using the cAMP HTRF—low volume 384 well protocol. The readout was the calculated fluorescence ratio (665 nm/620 nm). Values given in percent (%) indicate the percental effect (response) at a certain concentration of agonist relative to the maximum response of the FSH standard.
As for `CCc1onc(C)c1C(=O)Nc1cc(C(=O)NCCCN2CCCC2=O)ccc1N1CCN(c2ccccc2C)CC1` [Compound 81], the activation at 5 µM came out at 11%.

Consider `Cc1ccccc1N1CCN(c2ccc(C(=O)NCCCN3CCCC3=O)cc2NC(=O)c2c(C)noc2C)CC1` [Compound 106], for which the activation at 5 µM was 33%.

Still in this test, the particulars now being: 1 h; 5 μM; effect relative to maximum response of the FSH standard; Table 2.
As to `Cc1ccccc1N1CCN(c2ccc(C(=O)NCCCN3CCCC3=O)cc2NC(=O)c2cc(C3CC3)nn2C)CC1` [Compound 315], the activation at 5 µM stood at 47%.

Staying with this test, now noted: CHO FSHR cells + EC20 FSH; Table 1; read-out: Assay A EC50 of cyclic AMP production.
Regarding `Cc1ccccc1N1CCN(c2ccc(C(=O)NCCC3C[C@H]4CC[C@@H]3C4)cc2NC(=O)c2coc(C3CC3)n2)CC1` (stereo partly shown) [Compound 231], the EC50 fell in the range of 100 to 1000 nM.

Consider `Cc1cc(C(=O)Nc2cc(C(=O)NCCCN3CCCC3=O)ccc2N2CCN(c3ccccc3C)CC2)c(C)o1` [Compound 14], for which the EC50 was 100 to 1000 nM.

For the compound `Cc1ccccc1N1CCN(c2ccc(C(=O)NCCCN3CCCC3=O)cc2NC(=O)CC2CC2)CC1` [Compound 219, 3-(2-Cyclopropyl-acetylamino)-N-[3-(2-oxo-pyrrolidin-1-yl)-propyl]-4-(4-o-tolyl-piperazin-1-yl)-benzamide], the EC50 was in the range of 1000 to 10000 nM.

Consider `Cc1ccccc1N1CCN(c2ccc(C(=O)NCCCn3cccc3)cc2NC(=O)c2ccco2)CC1` [Compound 148], for which the EC50 lay within 100 to 1000 nM.

On to `Cc1ccc(C(=O)Nc2cc(C(=O)N[C@@H]3CCN(C(=O)OC(C)(C)C)C3)ccc2N2CCN(c3ccccc3C)CC2)o1` [Compound 142, (R)-3-[3-[(5-Methyl-furan-2-carbonyl)-amino]-4-(4-o-tolyl-piperazin-1-yl)-benzoylamino]-pyrrolidine-1-carboxylic acid tert-butyl ester], for which the EC50 is 1000 to 10000 nM.

For `Cc1ccc(C(=O)Nc2cc(C(=O)NCCCN3CCCC3=O)ccc2N2CCN(c3ccccc3)CC2)o1` [Compound 167, 5-Methyl-furan-2-carboxylic acid [5-[3-(2-oxo-pyrrolidin-1-yl)-propylcarbamoyl]-2-(4-phenyl-piperazin-1-yl)-phenyl]-amide], the EC50 is 1000 to 10000 nM.

In the case of `COc1cc(CNC(=O)c2ccc(N3CCN(c4ccccc4C)CC3)c(NC(=O)c3ccco3)c2)cc(OC)c1` [Compound 95, Furan-2-carboxylic acid [5-(3,5-dimethoxy-benzylcarbamoyl)-2-(4-o-tolyl-piperazin-1-yl)-phenyl]-amide], the EC50 is 100 to 1000 nM.

As for `Cc1ccccc1N1CCN(c2ccc(C(=O)NCCCN3CCCC3=O)cc2NC(=O)CC(C)C)CC1` [Compound 26], the EC50 is 1000 to 10000 nM.

For the compound `CNC[C@@H](NC(=O)c1ccc(N2CCN(c3ccccc3C)CC2)c(NC(=O)c2ccco2)c1)c1ccc(Cl)cc1` [Compound 55, Furan-2-carboxylic acid [5-[(S)-1-(4-chloro-phenyl)-2-methylamino-ethylcarbamoyl]-2-(4-o-tolyl-piperazin-1-yl)-phenyl]-amide], the EC50 lay within 1000 to 10000 nM.

For the compound `Cc1ccccc1N1CCN(c2ccc(C(=O)NCCCN3CCCC3=O)cc2NC(=O)c2occc2Br)CC1` [Compound 7], the EC50 was 1000 to 10000 nM.

Take `Cc1ccccc1N1CCN(c2ccc(C(=O)N[C@H](CO)c3ccccc3)cc2NC(=O)c2ccco2)CC1` [Compound 67, Furan-2-carboxylic acid [5-((S)-2-hydroxy-1-phenyl-ethylcarbamoyl)-2-(4-o-tolyl-piperazin-1-yl)-phenyl]-amide]: the EC50 was in the range of 100 to 1000 nM.

Regarding `Cc1ccc(C(=O)Nc2cc(C(=O)NCc3cccnc3)ccc2N2CCN(c3ccccc3C)CC2)o1` [Compound 218, 5-Methyl-furan-2-carboxylic acid [5-[(pyridin-3-ylmethyl)-carbamoyl]-2-(4-o-tolyl-piperazin-1-yl)-phenyl]-amide], the EC50 is 100 to 1000 nM.

Take `COc1ccc(C(=O)Nc2cc(C(=O)NCCCN3CCCC3=O)ccc2N2CCN(c3ccccc3C)CC2)nc1` [Compound 221]: the EC50 was in the range of 100 to 1000 nM.

Still in this test, the particulars now being: CHO FSHR cells + EC20 FSH; Table 2; read-out: Assay A EC50 of cyclic AMP production.
As for `CCCCNC(=O)NCCCNC(=O)c1ccc(N2CCN(c3ccccc3C)CC2)c(NC(=O)c2ccco2)c1` [Compound 491], the EC50 lay in the range of 100 to 1000 nM.

Regarding `Cc1ccccc1N1CCN(c2ccc(C(=O)NCCN(C)C3CCCC3)cc2NC(=O)c2ccco2)CC1` [Compound 502], the EC50 was 100 to 1000 nM.

For the compound `Cc1ccccc1N1CCN(c2ccc(C(=O)NC[C@H](O)c3ccccc3)cc2NC(=O)c2coc(C3CC3)n2)CC1` [Compound 566], the EC50 was in the range of 100 to 1000 nM.

On to `Cc1ccccc1N1CCN(c2ccc(C(=O)NC3(c4cccc(C(N)=O)c4)CC3)cc2NC(=O)c2ccco2)CC1` [Compound 325], for which the EC50 lay in the range of 100 to 1000 nM.

Consider `COCc1cccc(CNC(=O)c2ccc(N3CCN(c4ccccc4C)CC3)c(NC(=O)c3ccco3)c2)c1` [Compound 484], for which the EC50 was in the range of 100 to 1000 nM.

On to `O=C(NCCCN1CCCC1=O)c1ccc(N2CCN(c3cccnn3)CC2)c(NC(=O)c2coc(C3CC3)n2)c1` [Compound 596], for which the EC50 lay within 1000 to 10000 nM.

As for `Cc1ccccc1N1CCN(c2ccc(C(=O)NCCCNC(=O)Nc3ccc(C(F)(F)F)cc3)cc2NC(=O)c2coc(C3CC3)n2)CC1` [Compound 428], the EC50 was more than 10000 nM.

Regarding `Cc1ccccc1N1CCN(c2ccc(C(=O)NCCC(C)N3CCCC3=O)cc2NC(=O)c2coc(C3CC3)n2)CC1` (stereo not shown) [Compound 333], the EC50 is 100 to 1000 nM.

As to `COc1cccc(N2CCN(c3ccc(C(=O)NCCCN4CCCC4=O)cc3NC(=O)c3coc(C4CC4)n3)CC2)n1` [Compound 507], the EC50 fell in the range of 100 to 1000 nM.

As to `Cc1ccccc1N1CCN(c2ccc(C(=O)NCCCN3CCCC3=O)cc2NC(=O)c2ncc[nH]2)CC1` [Compound 440], the EC50 was in the range of 100 to 1000 nM.

For the compound `Cc1ccccc1N1CCN(c2ccc(C(=O)NCCCn3ccnc3)cc2NC(=O)c2coc(C3CC3)n2)CC1` [Compound 291], the EC50 is 100 to 1000 nM.

As to `Cc1ccccc1N1CCN(c2ccc(C(=O)NCCCNC(=O)C3CCOCC3)cc2NC(=O)c2coc(C3CC3)n2)CC1` [Compound 441], the EC50 is less than 100 nM.

As for `O=C(NCCCN1CCCC1=O)c1ccc(N2CCN(c3ccccc3C3CC3)CC2)c(NC(=O)c2coc(C3CC3)n2)c1` [Compound 524], the EC50 lay within 100 to 1000 nM.

For `Cc1ccccc1N1CCN(c2ccc(C(=O)NCCCN3C(=O)CCC3(C)C)cc2NC(=O)c2coc(C3CC3)n2)CC1` [Compound 354], the EC50 lay in the range of 100 to 1000 nM.

Turning to `Cc1ccccc1N1CCN(c2ccc(C(=O)NCCc3ccccc3C#N)cc2NC(=O)c2coc(C3CC3)n2)CC1` [Compound 397], the EC50 was 100 to 1000 nM.

Regarding `CCC(=O)NCCCNC(=O)c1ccc(N2CCN(c3ccccc3C)CC2)c(NC(=O)c2coc(C3CC3)n2)c1` [Compound 445], the EC50 is less than 100 nM.

On to `O=C(NCCCN1CCCC1=O)c1ccc(N2CC=C(c3ccccc3)CC2)c(NC(=O)c2coc(C3CC3)n2)c1` [Compound 399], for which the EC50 lay within 100 to 1000 nM.

For the compound `Cc1ccccc1N1CCN(c2ccc(C(=O)Nc3cccc(N4CCCC4=O)c3)cc2NC(=O)c2coc(C3CC3)n2)CC1` [Compound 481], the EC50 lay within 100 to 1000 nM.

Turning to `Cc1ccccc1N1CCN(c2ccc(C(=O)NCc3ccc(F)c(CN(C)C)c3)cc2NC(=O)c2coc(C3CC3)n2)CC1` [Compound 564], the EC50 is 100 to 1000 nM.

For the compound `Cc1ccccc1N1CCN(c2ccc(C(=O)NCCN3C(=O)CCC3=O)cc2NC(=O)c2ccco2)CC1` [Compound 305], the EC50 was less than 100 nM.

Take `Cc1ccccc1N1CCN(c2ccc(C(=O)NC[C@@H]3OC(C)(C)O[C@H]3CN)cc2NC(=O)c2coc(C3CC3)n2)CC1` [Compound 549]: the EC50 lay in the range of 100 to 1000 nM.

For the compound `Cc1ccc(C(=O)Nc2cc(C(=O)NCCCN3CCCC3=O)ccc2N2CCN(c3ncccc3C)CC2)o1` [Compound 463], the EC50 fell in the range of 100 to 1000 nM.

On to `Cc1ccccc1N1CCN(c2ccc(C(=O)NCCCNC(=O)c3ccncc3)cc2NC(=O)c2coc(C3CC3)n2)CC1` [Compound 442], for which the EC50 fell in the range of 100 to 1000 nM.

Regarding `Cc1ccccc1N1CCN(c2ccc(C(=O)NCc3cccc(CN(C)C)n3)cc2NC(=O)c2ccco2)CC1` [Compound 474], the EC50 is less than 100 nM.

For `Cc1ccccc1N1CCN(c2ccc(C(=O)NC(C)(C)c3cccc(CN(C)C)c3)cc2NC(=O)c2coc(C3CC3)n2)CC1` [Compound 486], the EC50 lay in the range of 1000 to 10000 nM.

Take `Cc1ccccc1N1CCN(c2ccc(C(=O)N3CCC4(COC4)C3)cc2NC(=O)c2coc(C3CC3)n2)CC1` [Compound 594]: the EC50 lay in the range of 1000 to 10000 nM.

`Cc1ccccc1N1CCN(c2ccc(C(=O)NCCCN3CCCC3=O)cc2NC(=O)C2CC2(F)F)CC1` (stereo not shown) [Compound 540]: the EC50 fell in the range of 1000 to 10000 nM.

For `Cc1ccccc1N1CCN(c2ccc(C(=O)NCCCN3CCCC3=O)cc2NC(=O)c2cc(C3CC3)n[nH]2)CC1` [Compound 284], the EC50 fell in the range of 100 to 1000 nM.

On to `Cc1ccccc1N1CCN(c2ccc(C(=O)NCCCC(=O)NC3CCC3)cc2NC(=O)c2coc(C3CC3)n2)CC1` [Compound 363], for which the EC50 was 100 to 1000 nM.

For `Cc1ccccc1N1CCN(c2ccc(C(=O)NCc3cccc(CN4CCOCC4)c3)cc2NC(=O)c2ccco2)CC1` [Compound 471], the EC50 fell in the range of 100 to 1000 nM.

A word on the EC50: it is the concentration needed to bring the measured effect to its halfway point.
